Source: patent publication US7816393B2, “Isoindoline compounds and methods of their use” (Celgene Corporation, priority 2008, dated 2010)

Work on `NC(=O)C(CCC(=O)O)N1Cc2c(N)cccc2C1=O` (stereo not shown) [Example 5.2, 4-(4-Amino-1-oxo-1,3-dihydro-isoindol-2-yl)-4-carbamoyl-butyric acid] yielded a melting point of 334 to 336 °C.
